According to US20110160166A1, “Therapeutic composition for the treatment and prevention of athlete's foot and fungal infections of the nail and surrounding tissues” (priority 2009, published 2011):

What was measured:
nail fungus = details: after 48 weeks of daily topical treatment; cited from earlier work
[1] = Excerpt: Salicylic acid USP is well known as a strongly antimicrobial pharmaceutical ingredient. It is currently approved by US FDA as an Over-the-Counter active ingredient in anti-dandruff and anti-acne medicaments. Salicylic acid is a skin and eye irritant and a keratolytic, and must be used at low concentrations when applied to human tissue.
toenail infections = details: cited from earlier work
fingernail infections = details: terbinafine; 6 weeks of treatment, assessment at 18 weeks after completion of therapy; cited from earlier work
[2] = target: Cytochrome P450 2D6 isozyme (Homo sapiens, UniProt P10635); details: cited from earlier work
Chain of Cytochrome P450 2D6 isozyme (P10635 whole entry): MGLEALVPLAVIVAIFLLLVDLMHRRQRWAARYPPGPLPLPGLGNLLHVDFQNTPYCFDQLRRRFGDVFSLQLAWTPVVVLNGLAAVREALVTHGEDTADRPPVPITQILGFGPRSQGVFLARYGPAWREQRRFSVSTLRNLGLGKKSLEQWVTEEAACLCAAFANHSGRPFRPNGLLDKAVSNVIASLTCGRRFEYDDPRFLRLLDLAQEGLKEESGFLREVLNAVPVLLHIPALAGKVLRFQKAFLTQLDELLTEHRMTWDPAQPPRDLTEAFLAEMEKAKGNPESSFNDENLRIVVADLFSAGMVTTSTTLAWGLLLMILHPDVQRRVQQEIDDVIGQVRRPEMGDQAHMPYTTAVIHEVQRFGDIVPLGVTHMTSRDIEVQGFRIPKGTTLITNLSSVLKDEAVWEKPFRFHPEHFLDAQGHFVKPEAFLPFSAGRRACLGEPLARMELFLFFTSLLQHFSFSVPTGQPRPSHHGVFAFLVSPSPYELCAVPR

For `Cc1cc(C2CCCCC2)n(O)c(=O)c1` [Ciclopirox 8%, Ciclopirox], the “patients who achieved clear or almost clear nails” value (nail fungus) is listed as less than 12%.
In the case of `O=C(O)c1ccccc1O` [Salicylic acid], the “keratolytic and irritant effects” value ([1]; formulated into an anhydrous base, applied to human nail and surrounding tissues) is reported as “dramatically reduced or eliminated” and the “irritation experienced by the subject” value ([1]; high concentrations in anhydrous base) is reported as “no irritation”.
For `CN(C/C=C/C#CC(C)(C)C)Cc1cccc2ccccc12` [terbinafine], the “cure rates for toenail infections” value (toenail infections; terbinafine 250 mg oral, 12 weeks treatment, 36 weeks follow-up after completion of therapy) is listed as 38%-59%, the clinical relapse rate (toenail infections; terbinafine, toenail infections) is listed as roughly 15% and the “cure rates for fingernail infections” value (fingernail infections) is listed as 59-79%. For the same compound, the “inhibition of Cytochrome P450 2D6 isozyme” value [2] was “inhibitor”.
